One series concerns Mtb. The settings on record: delivered orally; cited from earlier work.
Series [1] in a line: Thermogravimetric analysis (TGA), thermal stability. The class given is physicochemical. The settings on record: under air at 3° C./min. Here is the method: The loss of ca 10 wt. % below 100° C. is attributable to crystallized water leading to a dark blue anhydrous Cu(POA)2 crystalline phase, which can also be instantaneously obtained by exposing the hydrated phase to various organic solvents (i.e. MeOH, EtOH and DMF). […] Fourier-transform infrared spectroscopy (FTIR) analysis also clearly distinguishes between the two phases, as an absorption band attributed to coordinated water at 3.400 cm^−1 can be seen for the hydrated form in FIG. 1D.

Results on one molecule are retold here after patent US20230398112A1, “SPRAY-DRIED METAL-ORGANIC FRAMEWORKS FOR TREATMENT AND/OR DIAGNOSIS OF PULMONARY DISEASE” (priority 2020, published 2023).

Molecules are shown by their SMILES.

Turning to `O=C(O)c1cnccn1` [POA, pyrazinoic acid], the “efficacy as TB therapy” value with Mtb is “ineffective”. In addition, the “thermal stability (TGA)” value in series [1] was 100-200 °C.
